Assay results published in publication PMC12384225, “Piezo1 Channel Activators Yoda1 and Yoda2 in the Context of Red Blood Cells” (Biomolecules, 2025).

What was measured:
[1] = system: free Ca^2+ in healthy red blood cells (RBCs); design: method as in PMID 29259557, PMID 33208899; conditions: cited from earlier work
[2] = system: membrane potential of RBCs (Gárdos channel activity); design: method as in PMID 37492641; conditions: RBCs pretreated with the inhibitor; cited from earlier work
Piezo1 channel = target: T1, Piezo1 channel (Homo sapiens, UniProt Q92508); assay: Automated whole-cell patch clamp (SyncroPatch 384) of Piezo1-mediated currents in RBCs; assay type: cell-based; conditions: for responding cells out of total valid cells / responding cells out of total valid cells (any concentration) / concentration at which the response plateaus: +80 mV; for responding cells out of total valid cells (any concentration): current > baseline + 3σ at any concentration, N = 3; for EC50: human RBCs, responders only, current at +80 mV normalised to baseline, cumulative concentrations, Hill fit, room temperature; for concentration at which the response plateaus: normalised concentration-response curves
T1 construct: endogenous in cells; host or cells: human red blood cells (RBCs) from donor blood
Method: Whole-cell patch clamp recordings were performed using the SyncroPatch 384 (Nanion Technologies, Munich, Germany) as previously described. Experiments were conducted at room temperature using NPC-384 single-hole microchips with resistances ranging from 6 to 10 MΩ. Recording solutions contained (in mM) 110 KF, 10 KCl, 10 NaCl, 10 EGTA, and 10 HEPES, pH 7.2 (KOH) (internal); and 140 NaCl, 4 KCl, 2 CaCl2, 1 MgCl2, 5 D-glucose monohydrate, and 10 HEPES, pH 7.4 (NaOH) (external). Data acquisition was conducted using PatchControl384 v3.2.2 (Nanion Technologies, Munich, Germany), sampled at 10 kHz.
Piezo1-mediated currents were elicited using a voltage ramp protocol ranging from −100 mV to +80 mV over 450 ms, applied every 10 s, with a holding potential set at −30 mV. After establishing a stable baseline current in the external solution, cells were exposed to increasing concentrations of either Yoda1 or Yoda2 (Tocris Bioscience, Bristol, UK) in a cumulative manner: 41 nM, 144 nM, 442 nM, 1.33 μM, 4 μM, and 8 μM. To block channel activity, 30 μM GdCl3 (Sigma-Aldrich, Merck KGaA, Taufkirchen, Germany, a non-selective ion channel inhibitor, was subsequently applied.
RBCs were classified as responders if the mean current amplitude in the presence of the compound exceeded the mean current at baseline conditions by more than three times the standard deviation of the baseline (3σ). For EC50 determination, current amplitudes at each concentration were normalised to the baseline current, and dose–response curves were fitted using the Hill equation.

[3] = system: free Ca^2+ in healthy red blood cells (RBCs); assay: Intracellular Ca2+ by Fluo-4 flow cytometry in RBCs; assay type: cell-based, human; conditions: for EC50: maximum average Fluo-4 intensity of all RBCs during recording, Hill fit, flow cytometry, read-out: EC50 (Ca^2+ Measurements)
Method: Experiments for the intracellular Ca^2+ detection of RBCs were performed in Tyrode solution containing (in mM) 130 NaCl, 5 KCl, 5 glucose, 10 HEPES, 1 MgCl2, and 1.5 CaCl2. The pH was adjusted to 7.40 with NaOH. All salts were of analytical grade. The cells were loaded with Fluo-4 AM (Molecular Probes, Eugene, OR, USA) at a concentration of 5 μM for 1 hour at 37 °C. Then, the cells were washed three times with Tyrode solution.
Flow cytometry measurements were performed on LSRFortessa (Becton Dickinson, Franklin Lakes, NJ, USA). Washed RBCs from 50 μL of blood were loaded with Fluo-4 as previously described and washed again. For flow cytometry analysis, 10 μL of cell suspension was added to 700 μL of designed buffer and transferred to 5 mL round-bottom polystyrene test tubes (Corning Inc., Corning, NY, USA). For each sample, data recording started 1 minute after the cells were in the designed buffer for 10 minutes. The results were assessed using FlowJo (Becton Dickinson, Franklin Lakes, NJ, USA).

[4] = system: membrane potential of RBCs (Gárdos channel activity); assay: Membrane potential measurement (MBE method), hyperpolarisation by Gárdos channel activity; assay type: cell-based, human; conditions: magnitude of membrane hyperpolarisation ΔVm, Hill fit
Method: The membrane potential of RBCs was measured using a method originally described by Macey et al., subsequently refined by Poul Bennekou, e.g., [27], and later optimised by the group of Stéphane Egée, e.g., [28]. As such, the method is referred to as the MBE method after the three scientists who most contributed to it. For each experiment, a 2 mL microcentrifuge tube was prepared with 1 mL of Ringer solution containing (in mM) 153 NaCl, 2 KCl, and 4 CaCl2. All reagents were of analytical grade and dissolved in Milli-Q water. Protonophore carbonyl cyanide m-chlorophenyl hydrazone (CCCP) was added at a final concentration of 26 µM to increase the hydrogen permeability of membranes. The tube was placed in a 36 °C water bath, and a magnetic stir bar was added to ensure continuous mixing. A calibrated pH electrode (InLab Expert Pro pH electrode, Mettler-Toledo GmbH, Greifensee, Switzerland) was immersed in the solution to monitor pH changes in real time, with data acquisition and recording performed via software on a connected computer. […] The system was monitored for an additional 5 minutes to observe the effects of the compound on the RBCs. […]
The membrane potential (Vm) was calculated from the recorded pH data using the following equation:Vm [mV] = −61.5 × (pHval − pHlys), where pHval is the pH value measured at a specific time point, and pHlys is the final pH value obtained after cell lysis.

T1 sequence (Q92508 whole entry): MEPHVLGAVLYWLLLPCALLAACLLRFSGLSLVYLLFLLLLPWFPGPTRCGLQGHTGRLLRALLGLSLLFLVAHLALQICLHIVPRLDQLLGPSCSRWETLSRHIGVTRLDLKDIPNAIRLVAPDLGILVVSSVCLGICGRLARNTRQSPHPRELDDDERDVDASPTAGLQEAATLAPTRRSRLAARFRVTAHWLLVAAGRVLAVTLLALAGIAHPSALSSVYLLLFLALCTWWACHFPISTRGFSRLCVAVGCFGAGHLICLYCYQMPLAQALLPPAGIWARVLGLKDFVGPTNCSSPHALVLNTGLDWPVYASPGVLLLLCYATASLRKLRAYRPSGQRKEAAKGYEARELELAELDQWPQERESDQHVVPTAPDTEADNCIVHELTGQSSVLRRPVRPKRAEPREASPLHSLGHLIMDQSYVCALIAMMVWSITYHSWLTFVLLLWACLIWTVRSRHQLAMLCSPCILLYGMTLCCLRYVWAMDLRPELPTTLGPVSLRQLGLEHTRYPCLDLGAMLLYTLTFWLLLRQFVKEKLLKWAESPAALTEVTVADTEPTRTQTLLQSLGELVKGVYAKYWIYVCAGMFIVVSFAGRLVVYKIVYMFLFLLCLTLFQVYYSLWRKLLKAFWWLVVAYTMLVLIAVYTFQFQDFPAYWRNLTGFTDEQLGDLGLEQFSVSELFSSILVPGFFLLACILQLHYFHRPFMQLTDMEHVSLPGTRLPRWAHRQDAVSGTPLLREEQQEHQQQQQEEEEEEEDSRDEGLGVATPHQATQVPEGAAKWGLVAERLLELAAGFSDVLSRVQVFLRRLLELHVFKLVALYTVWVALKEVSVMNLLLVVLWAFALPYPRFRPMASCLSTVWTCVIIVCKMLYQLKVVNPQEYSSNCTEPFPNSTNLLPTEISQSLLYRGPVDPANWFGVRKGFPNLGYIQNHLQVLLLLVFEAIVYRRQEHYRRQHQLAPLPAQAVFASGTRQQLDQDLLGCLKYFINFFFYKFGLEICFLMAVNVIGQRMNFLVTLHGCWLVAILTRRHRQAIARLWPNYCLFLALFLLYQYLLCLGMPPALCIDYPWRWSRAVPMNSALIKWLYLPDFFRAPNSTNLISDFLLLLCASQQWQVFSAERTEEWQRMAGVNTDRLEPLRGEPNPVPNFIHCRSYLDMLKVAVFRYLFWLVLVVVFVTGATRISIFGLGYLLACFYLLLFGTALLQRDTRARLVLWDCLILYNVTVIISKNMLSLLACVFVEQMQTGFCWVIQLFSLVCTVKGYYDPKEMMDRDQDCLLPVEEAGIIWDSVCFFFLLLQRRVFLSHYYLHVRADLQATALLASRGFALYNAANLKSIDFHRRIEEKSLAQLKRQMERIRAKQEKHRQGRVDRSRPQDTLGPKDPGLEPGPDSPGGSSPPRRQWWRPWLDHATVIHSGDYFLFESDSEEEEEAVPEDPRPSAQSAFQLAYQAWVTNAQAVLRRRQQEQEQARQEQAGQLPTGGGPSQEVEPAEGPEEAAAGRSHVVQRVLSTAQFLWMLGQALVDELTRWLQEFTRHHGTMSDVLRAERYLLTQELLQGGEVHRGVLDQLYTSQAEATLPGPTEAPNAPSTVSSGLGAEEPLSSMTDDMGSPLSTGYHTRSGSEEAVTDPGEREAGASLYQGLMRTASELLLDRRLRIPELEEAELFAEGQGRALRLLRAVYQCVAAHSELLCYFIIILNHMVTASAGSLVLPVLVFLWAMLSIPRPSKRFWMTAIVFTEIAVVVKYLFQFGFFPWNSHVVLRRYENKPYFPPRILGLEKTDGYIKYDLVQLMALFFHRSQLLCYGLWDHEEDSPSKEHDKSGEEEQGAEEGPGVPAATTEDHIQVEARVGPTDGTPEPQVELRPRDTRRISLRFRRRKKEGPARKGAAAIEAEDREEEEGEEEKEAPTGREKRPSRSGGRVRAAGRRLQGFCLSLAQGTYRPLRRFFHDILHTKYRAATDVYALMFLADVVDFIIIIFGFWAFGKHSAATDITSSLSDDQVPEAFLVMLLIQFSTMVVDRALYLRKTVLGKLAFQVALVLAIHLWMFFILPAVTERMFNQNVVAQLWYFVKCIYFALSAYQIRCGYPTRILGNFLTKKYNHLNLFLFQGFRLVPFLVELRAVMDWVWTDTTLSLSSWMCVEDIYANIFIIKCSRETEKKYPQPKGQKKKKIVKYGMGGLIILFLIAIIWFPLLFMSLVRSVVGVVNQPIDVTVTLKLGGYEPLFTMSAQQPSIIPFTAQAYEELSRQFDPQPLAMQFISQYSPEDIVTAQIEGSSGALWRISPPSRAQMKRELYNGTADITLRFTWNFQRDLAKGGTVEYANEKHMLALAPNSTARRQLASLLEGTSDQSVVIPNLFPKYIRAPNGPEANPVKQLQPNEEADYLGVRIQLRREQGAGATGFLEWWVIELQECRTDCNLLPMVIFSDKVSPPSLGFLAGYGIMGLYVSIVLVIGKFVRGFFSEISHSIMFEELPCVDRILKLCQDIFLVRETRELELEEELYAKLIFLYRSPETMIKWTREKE

block of Piezo1 channel activity (Piezo1 channel; 30 μM, applied after cumulative Yoda1 or Yoda2)	responding cells out of total valid cells (Piezo1 channel; 41 nM)	responding cells out of total valid cells (Piezo1 channel; 144 nM)	responding cells out of total valid cells (Piezo1 channel; 442 nM)	responding cells out of total valid cells (Piezo1 channel; 1330 nM)	responding cells out of total valid cells (Piezo1 channel; 4000 nM)	responding cells out of total valid cells (Piezo1 channel; 8000 nM)	responding cells out of total valid cells (any concentration) (Piezo1 channel)	EC50 (Piezo1 channel)	concentration at which the response plateaus (Piezo1 channel)	EC50 [4]	Molecule	inhibition of increased Ca^2+ induced by Yoda1 or mechanical stress [1]	inhibition of hyperpolarisation [2]	Fluo-4 (Ca^2+) response of RBCs ([3]; 40 nM)	EC50 [3]	Fluo-4 (Ca^2+) response of RBCs ([3]; 80 nM)
–	–	–	–	–	–	–	–	–	–	–	GsMTx4	significantly inhibited	largely inhibited	–	–	–
block Piezo1 channel activity completely	–	–	–	–	–	–	–	–	–	–	[Cl][Gd]([Cl])[Cl] [GdCl3]	–	–	–	–	–
–	2/172	9/172	16/172	26/172	30/172	35/172	35/172	1.39 µM	did not plateau	0.305 µM	Clc1cccc(Cl)c1CSc1nnc(-c2cnccn2)s1 [Yoda1]	–	–	no obvious response	1.18 µM	–
–	3/171	12/171	24/171	30/171	30/171	31/171	35/171	0.305 µM	around 4 μM	0.465 µM	O=C(O)c1ccc(-c2nnc(SCc3c(Cl)cccc3Cl)s2)cc1 [Yoda2]	–	–	–	0.986 µM	no obvious response
